Measured values as given in patent US20260183242A1, “FORMULATIONS COMPRISING A COMBINATION OF ACID-NEUTRALIZING POLYMERIC AND NON-POLYMERIC SUBSTANCES FOR ORAL ADMINISTRATION OF ACTIVE AGENTS” (Entera Bio Ltd., priority 2023, published 2026).
Read-outs that look alike come from different tables or passages of the source. Each block holds one compound with its values, some of them ahead of it.

Tests used:
[1] = cited from earlier work
[2] = pH upon addition of test substance to 0.1 M HCl solution (pH 1.2), pH meter; type: physicochemical
Protocol: The solution pH was determined using an MP-103 pH-meter (MRC, Israel) equipped with ELC-10-00 electrode (MRC, Israel) or with a thin electrode HI1083 (HANNA instruments Inc.), shortly after dissolution and up to 26 hours later in order to ensure that the pH remained stable. The highest pH value obtained during the experimental time period was recorded in order to compare the acid-neutralizing capacity of each substance.
SNAC and the basic polymers sodium alginate, sodium carboxymethylcellulose in non-crosslinked (Na-CMC) and crosslinked (croscarmellose sodium, CCS) forms, and sodium starch glycolate (SSG) were dissolved in various volumes of 0.1 M HCl solution (pH 1.2) at concentrations of 1, 2, 4, 10, 20, 50, 100 and 150 mg/ml, and the solution pH was determined using an MP-103 pH-meter (MRC, Israel) equipped with ELC-10-00 electrode (MRC, Israel), as described in the Materials and Methods section hereinabove.
In order to obtain a beneficial rise in pH with a reduced loss of the active form of the absorption enhancer, the effect of various concentrations of different polymers containing carboxylate groups (sodium alginate, sodium starch glycolate, sodium carboxymethylcellulose, and croscarmellose sodium) on pH upon addition to a 0.1 M HCl solution (pH 1.2) was also evaluated. FIG. 3A presents pH values determined using an MP-103 pH-meter (MRC, Israel) equipped with ELC-10-00 electrode (MRC, Israel) and FIG. 3B presents pH values determined using an MP-103 pH-meter (MRC, Israel) equipped with a thin electrode HI1083 (HANNA instruments Inc.).

[3] = system: pepsin; assay: Proteolysis of hPTH (1-34) by pepsin at various pH values; type: in vitro ADME; settings: 150 μg/ml pepsin, 37° C., 3 minutes; media pH 2-7
Protocol: The effect of pH on peptide proteolysis by pepsin was determined by incubating 13.5 μg/ml human parathyroid hormone (1-34) (hPTH (1-34)) with 150 μg/ml pepsin, at various pH values, and determining the percentage of hPTH (1-34) which remained. The amount of hPTH (1-34) remaining upon addition to 150 μg/ml pepsin at 37° C. was determined in media with different pH values, followed by immediate (10 second) vortex and centrifugation for 3 minutes at 4° C., 4000 RCF. The following media were used: simulated gastric fluid (pH 2), prepared from 0.01 M HCl and NaCl; phthalate buffer (pH 4 or 5); and phosphate buffer (pH 6 or 7).

[4] = In vivo pig model: absorption of active agent from SNAC/SSG tablets with or without small proton-accepting agent; parameters: species or system mini-pigs; settings: both sexes, minipig; for Cmax: mini-pigs, preliminary data
Protocol: The effect of combination of SNAC, sodium starch glycolate (SSG) as an exemplary alkaline polymer and a small molecule proton-accepting agent (Sodium carbonate, arginine and/or Sodium Decanoate (C10)) on absorption of a therapeutically active agent was assessed in an in vivo pig model, which allows testing of orally administered unit dosage forms with conventional dimensions that are applicable also in humans. The following proteinaceous therapeutically active agents were tested: lixisenatide, octreotide, desmopressin, salmon calcitonin, PTH (1-34), leuprolide.
All formulation constituents were in a dry powder form and mixed geometrically using mortar and pestle. Thereafter, round flat tablets were prepared from the mixes using a punch and dye and dental manual press.
The obtained tablets were administered at monitored conditions with the aid of endoscope into the stomachs of 2 male and 2 female mini-pigs (about 45 kg) for each tested group on different visits. Pigs were deprived of food the night before the experiments and during the experiment and deprived of water an hour before the experiment and during the experiment.
Blood samples were taken from the jugular vein through an indwelling cannula at predetermined time points during the first hour post-dose (which reflects the absorption phase). Plasma was separated and the concentration of the tested model molecules in plasma was quantified using a suitable technique.
hPTH (1-34) was quantified using a commercially available Elisa kit for the determination of hPTH (1-34) in plasma or cell culture media (Quidel Corp. Athens, OH, USA; Cat #60-3900).
Octreotide was quantified using a commercially available Elisa kit for the determination of octreotide in plasma or cell culture media (BMA Biomedicals, Augst, Switzerland. Cat #S-1341).
Formulations containing the same therapeutically active agents were also formulated with 11% SSG and typically included about 0.3-0.5% by weight of the active agent, 85-90% by weight SNAC, and magnesium stearate as a lubricant (about 1% by weight), and the total weight of the tablet was 90-95 mg.

[5] = drug alone, without absorption enhancer; cited from earlier work

Compound: CCNC(=O)[C@@H]1CCCN1C(=O)[C@H](CCCNC(=N)N)NC(=O)[C@H](CC(C)C)NC(=O)[C@@H](CC(C)C)NC(=O)[C@H](Cc1ccc(O)cc1)NC(=O)[C@H](CO)NC(=O)[C@H](Cc1c[nH]c2ccccc12)NC(=O)[C@H](Cc1c[nH]cn1)NC(=O)[C@@H]1CCC(=O)N1 [Leuprolide, leuprolide]
T1/2 (IV half-life) ([1]; in vivo, iv): about 3 hours

pH 5 minutes after dissolution ([2]; 10 mg/ml SNAC added to HCl solution (pH 1.2)): about 1.5
pH 5 minutes after dissolution ([2]; 20 mg/ml SNAC added to HCl solution (pH 1.2)): 6.5
pH 5 minutes after dissolution ([2]; 100 mg/ml SNAC added to HCl solution (pH 1.2)): about 7.5
Compound: O=C(O)CCCCCCCNC(=O)c1ccccc1O [SNAC, sodium 8-N-(2-hydroxybenzoyl)aminocaprylate]

Compound: NC(=O)CC[C@@H]1NC(=O)[C@H](Cc2ccccc2)NC(=O)[C@H](Cc2ccc(O)cc2)NC(=O)CCSSC[C@@H](C(=O)N2CCC[C@H]2C(=O)N[C@H](CCCN=C(N)N)C(=O)NCC(N)=O)NC(=O)[C@H](CC(N)=O)NC1=O [desmopressin]
T1/2 (IV half-life) ([1]; in vivo, iv): 3 to 5 h

pH at which proteolysis by pepsin was inhibited [3]: ≥ 6
AUC(0-t) ([4]; AUClast): 0.164 ng·h/mL
AUC(0-t) ([4]; mean AUClast): 0.0978 ng·h/mL
Compound: CC[C@H](C)[C@H](NC(=O)[C@H](CCC(=O)O)NC(=O)[C@H](CO)NC(=O)[C@@H](NC(=O)[C@@H](N)CO)C(C)C)C(=O)N[C@@H](CCC(N)=O)C(=O)N[C@@H](CC(C)C)C(=O)N[C@@H](CCSC)C(=O)N[C@@H](Cc1cnc[nH]1)C(=O)N[C@@H](CC(N)=O)C(=O)N[C@@H](CC(C)C)C(=O)NCC(=O)N[C@@H](CCCCN)C(=O)N[C@@H](Cc1cnc[nH]1)C(=O)N[C@@H](CC(C)C)C(=O)N[C@@H](CC(N)=O)C(=O)N[C@@H](CO)C(=O)N[C@@H](CCSC)C(=O)N[C@@H](CCC(=O)O)C(=O)N[C@@H](CCCN=C(N)N)C(=O)N[C@H](C(=O)N[C@@H](CCC(=O)O)C(=O)N[C@@H](Cc1c[nH]c2ccccc12)C(=O)N[C@@H](CC(C)C)C(=O)N[C@@H](CCCN=C(N)N)C(=O)N[C@@H](CCCCN)C(=O)N[C@@H](CCCCN)C(=O)N[C@@H](CC(C)C)C(=O)N[C@@H](CCC(N)=O)C(=O)N[C@@H](CC(=O)O)C(=O)N[C@H](C(=O)N[C@@H](Cc1cnc[nH]1)C(=O)N[C@@H](CC(N)=O)C(=O)N[C@@H](Cc1ccccc1)C(=O)O)C(C)C)C(C)C [hPTH (1-34), teriparatide]
T1/2 (IV half-life) ([1]; intravenous): about 5 minutes

Compound: C[C@@H](O)[C@@H]1NC(=O)[C@H](CCCCN)NC(=O)[C@@H](Cc2c[nH]c3ccccc23)NC(=O)[C@H](Cc2ccccc2)NC(=O)[C@@H](NC(=O)[C@H](N)Cc2ccccc2)CSSC[C@@H](C(=O)N[C@H](CO)[C@@H](C)O)NC1=O [octreotide]
T1/2 (IV half-life) ([1]; intravenous): about 1.5 hours
Cmax ([4]; octreotide 0.3-0.5%, SNAC 85-90%, about 11% SSG, magnesium stearate, no PAA, read-out: mean Cmax): 2.09 ng/mL
Cmax ([4]; octreotide, SSG 11% by weight formulation further including sodium decanoate (C10), read-out: Cmax): 2.94 ng/mL

Compound: CC[C@H](C)[C@H](NC(=O)[C@H](Cc1ccccc1)NC(=O)[C@H](CC(=O)O)NC(=O)[C@H](CCCNC(=N)N)NC(=O)[C@H](C)NC(=O)[C@H](C)NC(=O)[C@H](CC(C)C)NC(=O)[C@H](CC(N)=O)NC(=O)[C@H](CC(=O)O)NC(=O)[C@H](CC(C)C)NC(=O)[C@@H](NC(=O)[C@@H](NC(=O)[C@H](CC(N)=O)NC(=O)[C@H](CCSC)NC(=O)[C@H](CCC(=O)O)NC(=O)[C@H](CC(=O)O)NC(=O)[C@H](CO)NC(=O)[C@H](Cc1ccccc1)NC(=O)[C@H](CO)NC(=O)CNC(=O)[C@H](CC(=O)O)NC(=O)CNC(=O)[C@@H](N)Cc1c[nH]cn1)[C@@H](C)O)[C@@H](C)CC)C(=O)N[C@@H](CC(N)=O)C(=O)N[C@@H](Cc1c[nH]c2ccccc12)C(=O)N[C@@H](CC(C)C)C(=O)N[C@H](C(=O)N[C@@H](CCC(N)=O)C(=O)N[C@H](C(=O)N[C@@H](CCCCN)C(=O)N[C@H](C(=O)N[C@H](C(=O)N[C@@H](CC(=O)O)C(=O)O)[C@@H](C)O)[C@@H](C)CC)[C@@H](C)O)[C@@H](C)CC [teduglutide]
oral (PO) bioavailability [5]: negligible

Compound: lixisenatide
T1/2 (IV half-life) ([1]; in vivo, iv): about 3 hours

Compound: salmon calcitonin
T1/2 (IV half-life) ([1]; in vivo, iv): 1 to 1.5 h
